The record followed here is publication PMC5882964, “Aspermerodione, a novel fungal metabolite with an unusual 2,6-dioxabicyclo[2.2.1]heptane skeleton, as an inhibitor of penicillin-binding protein 2a” (Scientific Reports, 2018).

Structures are written as SMILES.

A word on the Kd: it is the equilibrium constant for the complex coming apart.

The assay has as its target T1, penicillin-binding protein 2a (PBP2a) (Staphylococcus aureus, UniProt Q7DHH4).
T1 construct: gene mecA; residues 23-668, pET28a, from mecA of Staphylococcus aureus ATCC 43300
Nature of the assay: microscale thermophoresis (MST) with labelled recombinant PBP2a. (In general: In MST a laser heats a spot of the sample, and binding alters the fluorescence response.)

T1 sequence (Q7DHH4 entry or part of it): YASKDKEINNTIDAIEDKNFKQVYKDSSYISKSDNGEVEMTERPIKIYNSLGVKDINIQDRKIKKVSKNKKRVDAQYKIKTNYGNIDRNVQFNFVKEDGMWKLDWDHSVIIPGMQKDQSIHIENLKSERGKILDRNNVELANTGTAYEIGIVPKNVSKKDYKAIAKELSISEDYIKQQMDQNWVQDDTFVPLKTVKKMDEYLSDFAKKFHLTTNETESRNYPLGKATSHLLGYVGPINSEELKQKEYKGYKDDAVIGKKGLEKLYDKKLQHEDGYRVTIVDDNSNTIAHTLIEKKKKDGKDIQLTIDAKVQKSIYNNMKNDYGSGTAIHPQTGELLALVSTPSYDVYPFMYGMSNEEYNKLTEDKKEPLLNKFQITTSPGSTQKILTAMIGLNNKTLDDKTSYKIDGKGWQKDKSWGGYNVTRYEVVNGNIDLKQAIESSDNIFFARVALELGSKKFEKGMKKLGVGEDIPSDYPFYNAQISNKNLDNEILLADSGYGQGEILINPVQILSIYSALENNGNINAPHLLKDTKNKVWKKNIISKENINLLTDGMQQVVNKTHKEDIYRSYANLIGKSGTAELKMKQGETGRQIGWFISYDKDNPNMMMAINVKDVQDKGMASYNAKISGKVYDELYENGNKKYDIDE

Regarding `COC(=O)C1=C[C@]2(C)C[C@@]34CC[C@H]5C(C)(C)C(=O)C=C[C@]5(C)[C@]35OC[C@]14[C@](C)(CC2=O)O5` [compound 1, aspermerodione], the dissociation constant (Kd) is 18.4 ± 1.29 µM.
